Source: publication PMC5924986, “Cellular and Biophysical Pipeline for the Screening of Peroxisome Proliferator-Activated Receptor Beta/Delta Agonists: Avoiding False Positives” (PPAR Research, 2018)
Values joined by “and” are separate entries in the source; they are usually repeats but may differ in a detail not shown here. Identical values can stand only once. “Also recorded” adds a separate entry of the source. Like-named read-outs stand apart in the source and are kept apart here. Values belong to the compound of their own block, whether it stands above or below them.

What was measured:
[1] = biological target: T1, hPPARß/δ LBD (Homo sapiens, UniProt Q03181); assay: Qualitative thermal shift assay (TSA); assay type: binding; conditions: commercial agonists at 30 μM, 10 μM PPARß/δ, vs apo-PPARß/δ
T1 construct: cDNA (amino acids 171–441) inserted into pET28a vector; His-tag; made in house; host or cells: Escherichia coli BL21(DE3)
T1 sequence (Q03181 171-441): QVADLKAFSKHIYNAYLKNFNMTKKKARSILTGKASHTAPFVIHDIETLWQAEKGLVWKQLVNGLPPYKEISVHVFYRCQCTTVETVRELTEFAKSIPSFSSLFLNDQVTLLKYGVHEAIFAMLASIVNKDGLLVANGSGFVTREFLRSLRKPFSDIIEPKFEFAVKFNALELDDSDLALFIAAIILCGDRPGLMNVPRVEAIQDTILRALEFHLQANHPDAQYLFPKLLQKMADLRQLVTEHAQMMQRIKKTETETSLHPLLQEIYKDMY

[2] = biological target: T1, hPPARß/δ LBD; assay: ANS fluorescence quenching; assay type: binding; conditions: 2 μM hPPARß/δ LBD, 20 μM ANS; for ANS fluorescence quenching / ANS probe displacement (qualitative): compounds 0.3–50 μM, extracts 0.005–1 mg/mL
[3] = test system: 293T cells; assay: Cytotoxicity: MTT assay and Renilla reporter expression; assay type: cell-based; conditions: 1 μM, 1% DMSO as vehicle, compared with 0.1% or 1% DMSO
Experimental: We performed vector normalization with the raw luminescence data to control for differences in transfection efficiency between samples. For vector normalization we calculate luciferase signal/Renilla signal. The assay performance was assessed by plate statistics (signal-to-background ratio, Z′-factor, coefficient of variation) and apparent cytotoxicity was a measure of Renilla luciferase parameters. For Z′-factor calculation, we consider, after vector normalization, the positive controls (GW0742) as signal, and negative controls (DMSO) as background. For cytotoxicity, wells with expression of Renilla reporter five standard deviations (5 × SD) below the mean value of the controls treatment were considered cytotoxic and consequently were disregarded. We considered as hit candidates compounds/extracts with luminescence firefly/Renilla ratio 7 times above the standard deviation of negative controls (DMSO) from the same plate. […]
Additionally, we related the 3-(4,5-dimethyl-2-thia-zoyl)-2,5-diphenyl-2H-tetrazolium bromide (MTT) results with Renilla reporter expression to assess when a test compound/extract might be toxic to the cells, only based on Renilla reporter expression. […] The absorbance was measured at 562 nm using an EnSpire® Multimode Plate Reader (Perkin Elmer). […] Data were analyzed by 2-way ANOVA followed by Sidak's multiple comparison test in GraphPad Prism software. […]

[4] = test system: PPARß/δ; conditions: read-out: EC50 found in the literature, cited from earlier work
[5] = biological target: T2, PPARß/δ (Homo sapiens, UniProt Q03181); assay: PPARß/δ transactivation assay (Gal4-DBD/PPARß/δ-LBD dual luciferase reporter-gene assay in 293T cells); assay type: cell-based; conditions: dose-response curves 10^−11–10^−6 M
T2 construct: expressed in transfected cells; host or cells: 293T cells (ATCC CRL-3216), transient transfection
T2 sequence (Q03181 211-439 limits assumed): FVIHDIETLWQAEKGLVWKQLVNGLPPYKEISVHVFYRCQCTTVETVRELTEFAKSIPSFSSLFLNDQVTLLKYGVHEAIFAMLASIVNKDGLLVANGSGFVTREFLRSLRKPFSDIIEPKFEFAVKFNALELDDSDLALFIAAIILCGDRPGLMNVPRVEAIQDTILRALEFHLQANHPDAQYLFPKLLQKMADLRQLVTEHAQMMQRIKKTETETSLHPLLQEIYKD

Tm variation [1]: 2.9 ± 0.1 °C and 2.9 °C
SMILES: CC(C)(Oc1ccc(CCNC(=O)c2ccc(Cl)cc2)cc1)C(=O)O [Bezafibrate]
ANS fluorescence quenching / ANS probe displacement (qualitative) [2]: did not dislocate the ANS probe; also recorded: did not show a fluorescence quenching

SMILES: Cc1cc(SCc2sc(-c3ccc(C(F)(F)F)c(F)c3)nc2C)ccc1OCC(=O)O [GW0742]
cytotoxicity (MTT / Renilla reporter expression) [3]: no cytotoxicity

SMILES: Cc1cc(SCc2sc(-c3ccc(C(F)(F)F)cc3)nc2C)ccc1OCC(=O)O [GW501516]
EC50 ([4]; ref [7]): 1.8 nM

EC50 [5]: 26.4 nM
Tm variation [1]: 7.3 ± 0.7 °C and 7.3 °C
ANS fluorescence quenching / ANS probe displacement (qualitative) [2]: showed quenching in the ANS fluorescence
Kd ([2]; read-out: apparent dissociation constant (Kdapp)): 1090 ± 80 nM
SMILES: CCCc1c(OCCCOc2ccc(OCC(=O)O)cc2)ccc(C(C)=O)c1O [L-165,041]
EC50 ([4]; ref [25]): 125 nM
